This note sets out measurements from patent publication US11007162B2, “Methods of reducing small, dense LDL particles” (CymaBay Therapeutics, Inc., priority 2008, dated 2021).

One assay concerns overweight subjects. Put plainly: Second clinical study: LDL particle size pattern and blood chemistry in overweight subjects. The assay is classed as in vivo, human. As to the method: A second clinical study to determine the effect of the Compound of Formula II on LDL particle size in overweight subjects was performed. Subjects in this study met the following criteria: Non-Diabetic; untreated or diet-treated, with fasting lipids at initial screening and visit 2 (after 4 week run-in): […] Subjects were males with waist circumference greater than 38″ or females with waist circumference greater than 33″. Data was generated in this second study from 181 subjects. […] Of the 28 subjects that remained in the study in the placebo group, there was a net loss of subjects having LDL pattern A.

The subject of the next assay is C57BL/6 mice. Kind of assay: Intestinal cholesterol absorption by fecal dual isotope ratio method. The class given is in vivo. As to the method: This study was designed to examine the effect of Compound II on intestinal cholesterol absorption in mice using the fecal dual isotope ratio method. Eight-week-old male C57BL/6 mice were fed standard mouse chow (control) with no added cholesterol (Harlan Teklad diet T.8604) ad libitum. Mice were randomized into five groups: 1) control, water gavaged daily; 2) compound II gavaged daily (in water) at a dose of 3 mg/kg; 3) compound II gavaged daily (in water) at a dose of 10 mg/kg; 4) ezetimibe gavaged daily (in corn oil) at a dose of 5 mg/kg; 5) compound II fed daily as diet admix at a dose of approximately 15 mg/kg. Mice were housed individually and monitored daily for food consumption and body weight. Following eight days of feeding/drug administration, (and 1 hour following gavage of drug), nonfasted, unanesthetized animals were bled and plasma was isolated and flash-frozen at −80° C. for shipment and measurement of concentrations of Compound II and its metabolites. The following day (day 9), mice were gavaged with drug or control. One hour later, each mouse was gavaged with MCT oil containing [^14C]cholesterol and [^3H]sitostanol. Mice were housed individually in metabolic cages and ad libitum feeding and daily gavage of each drug was continued. Feces were collected daily from each animal for a period of 4 days. For each individual mouse, the 4-day feces were pooled, dried, saponified, extracted and counted.
Intestinal cholesterol absorption in age- and gender-matched C57BL/6 mice was determined by the fecal dual isotope ratio method. […] See, FIG. 10. […] Statistical analysis between groups was assessed by unpaired Student's t-test. Statistical significance was defined as a two-tailed probability of less than 0.05.

Assay [1] relates to human subjects. Kind of assay: Effect on cholesterol synthesis in human subjects after 21 days. The class given is in vivo. The protocol:
A series of experiments were performed to determine the effect of Compound II on cholesterol synthesis. Compound II was administered to human subjects and the effect on cholesterol ester, acyl-coenzyme A:cholesterol acyltransferase (ACAT) and Lecithin-cholesterol acyltransferase (LACAT) was determined after 21 days. […] The effect of treatment appeared similar between ACAT- and LCAT-derived cholesterol esters, indicating a reduction in cholesterol substrate.

Assay [2] has as its system human subjects. Kind of assay: Absorption of phytosterols (markers of cholesterol absorption) in human subjects, day 21. The assay is classed as in vivo. Conditions: oral daily dose, day 21, FIG. 11. The protocol:
In another experiment, human subjects received an oral dose of Compound II at day 1 and daily thereafter and the effect of the drug was assessed on day 21. Phytosterols are poorly absorbed from diet, but are absorbed proportionally with dietary cholesterol and thus serve as good markers of cholesterol absorption.

Another assay deals with healthy male subjects. Kind of assay: Phase I multiple ascending dose study, 21 days; LDL particle size by GGE and AIM. The assay is classed as in vivo, human. Conditions: for predominant LDL particle size / proportion of small LDL particles: 50, 100 and 200 mg. The protocol: Thirty-six healthy male subjects were treated with the compound of Formula II at 50, 100, and 200 mg for 21 days. To determine the lipoprotein particle sizes in the subjects before and after administration of the compound, gradient-gel electrophoresis (GGE) and Airborne Ion Mobility (AIM) methods were used.
GGE was performed essentially as described in Krauss and Burke, J Lipid Res. 23:97-104 (1982) and La Belle, et al., J. Lipid Res. 38 690-700 (1997) as follows:
LDL particle diameters were determined by nondenaturing 2-14% polyacrylamide gradient gel electrophoresis in 0.09 M Tris/0.08 M borate buffer (pH 8.3), 3 mM EDTA at 8-10° C. Samples (whole plasma) were electrophoresed at 40 V for 15 min, then 80 V for 15 min, and then at 125 V for 24 h to allow all particles to run to their size exclusion limits. Gels were stained for protein with Sudan Black and scanned at 555 nm with a Transidyne RFT densitometer. Particle sizes were calculated from a calibration curve using a high molecular weight reference protyin mixture (Pharmacia Biotech., Piscataway, N.J.), 380 Å latex beads (Duke Scientific Corp., Palo Alto, Calif.) and lipoprotein calibrators that are frozen at −80° C. and included on each gel run. Plasma samples, stored at −80° C. and used as controls for gradient gel analysis procedures, were run in duplicate on each gel. Particle size of LDL peaks in the controls were measured within ±2 Å (coefficient of variation, +1%).
AIM was performed essentially as described in Caulfield, et al., Clin. Chem. 54:1307-1316 (2008), generally as follows:
Serum samples or controls were briefly mixed by vortex mixing, then 5 μl of sample or control was mixed with 20 μl of an albumin removal reagent [7.5 g/L Reactive green 19 dextran (RGD), Sigma-Aldrich; 2.5 g/L dextran sulfate, Sigma-Aldrich; and 0.5 g/L EDTA, Spectrum Chemicals] and incubated on ice for 15 minutes. After incubation, the sample mixture was overlaid on 200 μl deuterium oxide (Medical Isotopes) in a 42.2 ultracentrifuge tube (Beckman Coulter). The samples were ultracentrifuged at 10° C. for 135 min at 223 000 g (42 000 rpm), and then the top 85 μl (i.e., the lipid fraction) of the sample was removed. The samples were diluted 1:800 for HDL analysis using 25 mmol/L ammonium acetate, 0.5 mmol/L ammonium hydroxide, pH 7.4. For LDL analysis, samples were diluted 1:200 with the same diluent containing 5 μg/mL dextran sulfate to help prevent LDL particles from sticking to the capillary surfaces. Final dilutions were made in deep-well 96-well plates and placed in a Leap HTLC Pal autosampler (Eksigent) with the cooled stack maintained at 6° C.
The autosampler was connected to the electrospray generator (Model 3480; TSI) via methyl-deactivated silica capillary (50 μm i.d.; SGE). Flow was introduced by nano-LC pumps (Eksigent) running a mobile phase of 25 mmol/L ammonium acetate, 0.5 mmol/L ammonium hydroxide, pH 7.4. By means of a capillary metal union (Upchurch Scientific), an autosampler injected 10 μl sample at 6 μl/min into a transfer capillary (methyl-deactivated, SGE, 50 μm, 33 cm long). High voltage (2.1 kV) was applied to the metal capillary union located 33 cm upstream of the electrospray unit. The electrospray Taylor cone was monitored visually and amperometrically to ensure stability. After the sample had filled the capillary and reached the electrospray chamber, the flow was decreased to 200 nL/min and the data recording process was started. The gas (containing approximately 5% CO2) flowing into the electrospray chamber was regulated at 1.6 L/min. The electrosprayed particles passed through a particle-charge neutralizing chamber and then entered the differential mobility analyzer (DMA). Se, e.g., U.S. Pat. No. 7,259,018. Scan time was 2 min and covered a particle range of 17.2 to 542.0 Å. […]

Setting [3] is: Atorvastatin 20 mg, Week 0 (before treatment).
[4] abbreviates: 21 days, listed as compound of Formula II.
Setting [5] is: phase I multiple ascending doses samples, FIG. 1.
The mark [6] stands for this setting: MBX-8025 50 mg, Week 0 (before treatment).
[7] abbreviates: MBX-8025 100 mg, Week 0 (before treatment).

In the case of `CC(C)c1c(C(=O)Nc2ccccc2)c(-c2ccccc2)c(-c2ccc(F)cc2)n1CC[C@@H](O)C[C@@H](O)CC(=O)O` [Atorvastatin, reference compound], the “number of subjects having LDL Pattern A” value turned out to be 9 in the assay with overweight subjects (setting [3]); 12 with overweight subjects (Atorvastatin 20 mg, Week 4); 13 with overweight subjects (Atorvastatin 20 mg, Week 8). The “number of subjects having LDL Pattern B” value is 15 in the assay on overweight subjects (setting [3]); 10 in the assay with overweight subjects (Atorvastatin 20 mg, Week 4); 13 with overweight subjects (Atorvastatin 20 mg, Week 8). For the same molecule, the “number of subjects having LDL Pattern I” value in the assay with overweight subjects (setting [3]) amounted to 5; in the assay on overweight subjects (Atorvastatin 20 mg, Week 4) it was 6; with overweight subjects (Atorvastatin 20 mg, Week 8), 3. Moreover, the HDL levels entry in the assay with overweight subjects (FIG. 6) is recorded as “no effect”.

Regarding `CCOC(COc1ccc(C(F)(F)F)cc1)CSc1ccc(OCC(=O)O)c(C)c1` (centres unmarked) [Compound II], the “reduction in cholesterol absorption versus control (printed as negative change)” value in the assay with C57BL/6 mice (admix to diet, approximate dose 15 mg/kg/d, p<0.0006) is reported as −45%. Further, the “change in cholesterol absorption versus control” value in the assay on C57BL/6 mice (gavage, 3 mg/kg/d, no significant change) was −8%. Further, the “reduction in cholesterol absorption versus control” value with C57BL/6 mice (gavage, 10 mg/kg/d, significant) is listed as 29.4%. Besides, in the assay with human subjects [1] (FIG. 9), the “Lanosterol (cholesterol synthesis intermediate) in blood” value is “decreased in a dose-dependent fashion”, the “desmosterol (cholesterol synthesis intermediate) in blood” value is “decreased in a dose-dependent fashion” and the “lathosterol (cholesterol synthesis intermediate) in blood” value was “decreased in a dose-dependent fashion”. The “cholesterol concentrations (ACAT- and LCAT-derived cholesterol esters)” value with human subjects [1] (after 21 days) is “decreased cholesterol concentrations in a dose-dependent fashion”. In addition, in the assay with human subjects [2], the Stigmasterol entry is recorded as “not significantly affected”, the campesterol entry is listed as “significantly decreased” and the β-sitosterol result is “significantly decreased”. Besides, the “shift of LDL subclass pattern” value in the assay on healthy male subjects (50, 100 and 200 mg dosage, day 21 vs day 1, GGE) is “from LDL Pattern B or I to LDL Pattern A”. Moreover, in the assay on healthy male subjects (21 days, listed as compound II), the “predominant LDL particle size” value is “increased” and the “proportion of small LDL particles” value is recorded as “lowered”. Further, in the assay with healthy male subjects (setting [4]), the “predominant LDL particle size” value is listed as “effectively increased” and the “proportion of small LDL particles” value is “decreasing the amount of smaller LDL particles”. In addition, the “predominant LDL particle size” value in the assay with healthy male subjects (21 days, listed as drawing 12) is recorded as “effective in improving”. Moreover, the VLDL particle size entry with healthy male subjects (21 days) is given as “did not affect”. Besides, the LDL particle distributions result in the assay with healthy male subjects (21 days, by dose) is “did affect LDL particle distributions in dose dependent fashion”. In addition, in the assay on healthy male subjects (setting [5]), the “Apolipoprotein B” value was “significantly lowered” and the LDL-cholesterol result is given as “significantly lowered”. Moreover, in the assay with overweight subjects (50 mg and 100 mg), the “LDL pattern results compared with control group treated with Atorvastatin” value is recorded as “superior”. For the same molecule, in the assay on overweight subjects (100 mg), the “number of subjects having pattern A (in words)” value was “increase” and the “number of subjects having pattern B (in words)” value is “large decrease”. In addition, in the assay on overweight subjects (FIG. 6), the “Apo B-100” value is recorded as “reduced”, the HDL levels entry was “increased”, the LDL result is “reduced” and the total cholesterol entry was “reduced”. In addition, the triglycerides entry in the assay on overweight subjects (FIG. 6) is reported as “reduced”. Further, in the assay on overweight subjects (FIG. 7), the “percentage of individuals having LDL pattern A over time” value is listed as “went up dramatically”. Further, in the assay on overweight subjects (FIG. 8), the “percentage of individuals having LDL pattern B over time” value is “went down dramatically”. For the same molecule, in the assay on overweight subjects (setting [6]), the “number of subjects having LDL Pattern A” value is given as 8, the “number of subjects having LDL Pattern B” value is reported as 13 and the “number of subjects having LDL Pattern I” value was 7. For the same molecule, in the assay on overweight subjects (MBX-8025 50 mg, Week 4), the “number of subjects having LDL Pattern A” value is 24, the “number of subjects having LDL Pattern B” value came out at 3 and the “number of subjects having LDL Pattern I” value is reported as 0. Further, in the assay on overweight subjects (MBX-8025 50 mg, Week 8), the “number of subjects having LDL Pattern A” value is on record as 25, the “number of subjects having LDL Pattern B” value came to 2 and the “number of subjects having LDL Pattern I” value is recorded as 2. In the assay on overweight subjects (setting [7]), the “number of subjects having LDL Pattern A” value is 6, the “number of subjects having LDL Pattern B” value came out at 20 and the “number of subjects having LDL Pattern I” value is given as 7. Moreover, in the assay on overweight subjects (MBX-8025 100 mg, Week 4), the “number of subjects having LDL Pattern A” value came out at 25, the “number of subjects having LDL Pattern B” value was 1 and the “number of subjects having LDL Pattern I” value is given as 4. Besides, in the assay on overweight subjects (MBX-8025 100 mg, Week 8), the “number of subjects having LDL Pattern A” value is 25, the “number of subjects having LDL Pattern B” value came out at 2 and the “number of subjects having LDL Pattern I” value turned out to be 2.

With `O=C1[C@H](CC[C@H](O)c2ccc(F)cc2)[C@@H](c2ccc(O)cc2)N1c1ccc(F)cc1` [ezetimibe, reference compound], the “reduction in cholesterol absorption” value in the assay with C57BL/6 mice (gavage in corn oil, 5 mg/kg/d, positive control, p<0.0000005) came out at 56.4%.
